Laboratory results published in the supplement of paper PMC11208160.

Assay: recombinant barcode read abundance after kanamycin selection (control-corrected) (log10(CPM+1)); higher = more efficient recombination; sequences stand for … in AGTGCAGAGAAAATCGGCCAGTTTTCTCTGCCTGCAGTCCGCATGCCGT…ATTTATGCAGCGGACTGCCTTTCTCCCAAAGTGATAAACCGGACAGTATCATGGACCGGTTTTCCCGGTAATCCGTATTTGCAAGGTTGGTTTCACT; site = the 11-nt target
In short: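 Each value is log10(CPM+1). It describes recombination efficiency, taken as averaged, control-corrected counts per million of barcodes at recombinant junctions. The pooled E. coli library paired targets with IS621 bridge RNA target-binding loops, was co-electroporated with a donor plasmid, and was plated twice on chloramphenicol/ampicillin LB agar (control) and twice on chloramphenicol/ampicillin/kanamycin containing 0.1 mM IPTG.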

| Sequence | recombinant barcode read abundance (log10) |
| --- | --- |
| AGGCGGTTCTGGGTTCTAACCTGTTGCTTAG [AGGCGGTCTAA_LTGcore_TC_RTGcore_CT] (site AGGCGGTCTAA) (LTG core: TC, RTG core: CT) | 0 |
| AGGCGGTTCTGGGTTCTAACCTGTTGCTTGA [AGGCGGTCTAA_LTGcore_TC_RTGcore_TC] (site AGGCGGTCTAA) (LTG core: TC, RTG core: TC) | 0.191 |
| AGGCGGTTTTGGGTTCTAACCTGTTGCTTAG [AGGCGGTCTAA_LTGcore_TT_RTGcore_CT] (site AGGCGGTCTAA) (LTG core: TT, RTG core: CT) | 0.104 |
| AGTCTTAACTGGGTTCTAACCTGTTGCCAAG [AGTCTTACTTG_LTGcore_AC_RTGcore_CT] (site AGTCTTACTTG) (LTG core: AC, RTG core: CT) | 0.111 |
| AGTCTTAACTGGGTTCTAACCTGTTGCCAGT [AGTCTTACTTG_LTGcore_AC_RTGcore_AC] (site AGTCTTACTTG) (LTG core: AC, RTG core: AC) | 0.129 |
| AGTCTTAAGTGGGTTCTAACCTGTTGCCACT [AGTCTTACTTG_LTGcore_AG_RTGcore_AG] (site AGTCTTACTTG) (LTG core: AG, RTG core: AG) | 0.0305 |
| AGTCTTACCTGGGTTCTAACCTGTTGCCAAG [AGTCTTACTTG_LTGcore_CC_RTGcore_CT] (site AGTCTTACTTG) (LTG core: CC, RTG core: CT) | 0.0498 |
| AGTCTTACTTGGGTTCTAACCTGTTGCCATG [AGTCTTACTTG_LTGcore_CT_RTGcore_CA] (site AGTCTTACTTG) (LTG core: CT, RTG core: CA) | 0.0163 |
| AGTCTTAGATGGGTTCTAACCTGTTGCCAAG [AGTCTTACTTG_LTGcore_GA_RTGcore_CT] (site AGTCTTACTTG) (LTG core: GA, RTG core: CT) | 0.23 |
| AGTCTTAGATGGGTTCTAACCTGTTGCCATC [AGTCTTACTTG_LTGcore_GA_RTGcore_GA] (site AGTCTTACTTG) (LTG core: GA, RTG core: GA) | 0.0257 |
| AGTCTTAGCTGGGTTCTAACCTGTTGCCAAG [AGTCTTACTTG_LTGcore_GC_RTGcore_CT] (site AGTCTTACTTG) (LTG core: GC, RTG core: CT) | 0.0805 |
| AGTCTTAGGTGGGTTCTAACCTGTTGCCAAG [AGTCTTACTTG_LTGcore_GG_RTGcore_CT] (site AGTCTTACTTG) (LTG core: GG, RTG core: CT) | 0 |
| AGTCTTAGTTGGGTTCTAACCTGTTGCCAAG [AGTCTTACTTG_LTGcore_GT_RTGcore_CT] (site AGTCTTACTTG) (LTG core: GT, RTG core: CT) | 0.0538 |
| AGTCTTATCTGGGTTCTAACCTGTTGCCAAG [AGTCTTACTTG_LTGcore_TC_RTGcore_CT] (site AGTCTTACTTG) (LTG core: TC, RTG core: CT) | 0.0237 |
| ATGCTTTAATGGGTTCTAACCTGTTGCCTTT [ATGCTTTCTAG_LTGcore_AA_RTGcore_AA] (site ATGCTTTCTAG) (LTG core: AA, RTG core: AA) | 0.125 |
| ATGCTTTACTGGGTTCTAACCTGTTGCCTGT [ATGCTTTCTAG_LTGcore_AC_RTGcore_AC] (site ATGCTTTCTAG) (LTG core: AC, RTG core: AC) | 0.0458 |
| ATGCTTTCTTGGGTTCTAACCTGTTGCCTAA [ATGCTTTCTAG_LTGcore_CT_RTGcore_TT] (site ATGCTTTCTAG) (LTG core: CT, RTG core: TT) | 0.322 |
| ATGCTTTCTTGGGTTCTAACCTGTTGCCTCA [ATGCTTTCTAG_LTGcore_CT_RTGcore_TG] (site ATGCTTTCTAG) (LTG core: CT, RTG core: TG) | 0.153 |
| ATGCTTTCTTGGGTTCTAACCTGTTGCCTCC [ATGCTTTCTAG_LTGcore_CT_RTGcore_GG] (site ATGCTTTCTAG) (LTG core: CT, RTG core: GG) | 0.127 |
| ATGCTTTCTTGGGTTCTAACCTGTTGCCTGG [ATGCTTTCTAG_LTGcore_CT_RTGcore_CC] (site ATGCTTTCTAG) (LTG core: CT, RTG core: CC) | 0.57 |
| ATGCTTTTGTGGGTTCTAACCTGTTGCCTCA [ATGCTTTCTAG_LTGcore_TG_RTGcore_TG] (site ATGCTTTCTAG) (LTG core: TG, RTG core: TG) | 0.313 |
| ATGTCCCAATGGGTTCTAACCTGTTGCTCTT [ATGTCCCCTGA_LTGcore_AA_RTGcore_AA] (site ATGTCCCCTGA) (LTG core: AA, RTG core: AA) | 0.133 |

| Sequence | recombinant barcode read abundance (log10) |
| --- | --- |
| ATGTCCCATTGGGTTCTAACCTGTTGCTCAT [ATGTCCCCTGA_LTGcore_AT_RTGcore_AT] (site ATGTCCCCTGA) (LTG core: AT, RTG core: AT) | 0.0551 |
| ATGTCCCCATGGGTTCTAACCTGTTGCTCTG [ATGTCCCCTGA_LTGcore_CA_RTGcore_CA] (site ATGTCCCCTGA) (LTG core: CA, RTG core: CA) | 0.0134 |
| ATGTCCCCCTGGGTTCTAACCTGTTGCTCAG [ATGTCCCCTGA_LTGcore_CC_RTGcore_CT] (site ATGTCCCCTGA) (LTG core: CC, RTG core: CT) | 0.137 |
| ATGTCCCCCTGGGTTCTAACCTGTTGCTCGG [ATGTCCCCTGA_LTGcore_CC_RTGcore_CC] (site ATGTCCCCTGA) (LTG core: CC, RTG core: CC) | 0.0529 |
| ATGTCCCCGTGGGTTCTAACCTGTTGCTCAG [ATGTCCCCTGA_LTGcore_CG_RTGcore_CT] (site ATGTCCCCTGA) (LTG core: CG, RTG core: CT) | 0.0411 |
| ATGTCCCCTTGGGTTCTAACCTGTTGCTCAT [ATGTCCCCTGA_LTGcore_CT_RTGcore_AT] (site ATGTCCCCTGA) (LTG core: CT, RTG core: AT) | 0.0302 |
| ATGTCCCCTTGGGTTCTAACCTGTTGCTCGT [ATGTCCCCTGA_LTGcore_CT_RTGcore_AC] (site ATGTCCCCTGA) (LTG core: CT, RTG core: AC) | 0.161 |
| ATGTCCCGTTGGGTTCTAACCTGTTGCTCAG [ATGTCCCCTGA_LTGcore_GT_RTGcore_CT] (site ATGTCCCCTGA) (LTG core: GT, RTG core: CT) | 0.0848 |
| ATGTCCCTCTGGGTTCTAACCTGTTGCTCGA [ATGTCCCCTGA_LTGcore_TC_RTGcore_TC] (site ATGTCCCCTGA) (LTG core: TC, RTG core: TC) | 0.122 |
| ATGTCCCTTTGGGTTCTAACCTGTTGCTCAG [ATGTCCCCTGA_LTGcore_TT_RTGcore_CT] (site ATGTCCCCTGA) (LTG core: TT, RTG core: CT) | 0.0884 |
| CATATTAAATGGGTTCTAACCTGTTGCCTAG [CATATTACTAG_LTGcore_AA_RTGcore_CT] (site CATATTACTAG) (LTG core: AA, RTG core: CT) | 0.0356 |
| CATATTACATGGGTTCTAACCTGTTGCCTTG [CATATTACTAG_LTGcore_CA_RTGcore_CA] (site CATATTACTAG) (LTG core: CA, RTG core: CA) | 0.00594 |
| CATATTACTTGGGTTCTAACCTGTTGCCTAG [CATATTACTAG_LTGcore_CT_RTGcore_CT] (site CATATTACTAG) (LTG core: CT, RTG core: CT) | 0.22 |
| CATATTACTTGGGTTCTAACCTGTTGCCTAT [CATATTACTAG_LTGcore_CT_RTGcore_AT] (site CATATTACTAG) (LTG core: CT, RTG core: AT) | 0.0875 |
| CATATTACTTGGGTTCTAACCTGTTGCCTGC [CATATTACTAG_LTGcore_CT_RTGcore_GC] (site CATATTACTAG) (LTG core: CT, RTG core: GC) | 0.0956 |
| CATATTACTTGGGTTCTAACCTGTTGCCTGT [CATATTACTAG_LTGcore_CT_RTGcore_AC] (site CATATTACTAG) (LTG core: CT, RTG core: AC) | 0.00796 |
| CATATTAGCTGGGTTCTAACCTGTTGCCTGC [CATATTACTAG_LTGcore_GC_RTGcore_GC] (site CATATTACTAG) (LTG core: GC, RTG core: GC) | 0 |
| CATATTAGTTGGGTTCTAACCTGTTGCCTAC [CATATTACTAG_LTGcore_GT_RTGcore_GT] (site CATATTACTAG) (LTG core: GT, RTG core: GT) | 0.1 |
| CATATTAGTTGGGTTCTAACCTGTTGCCTAG [CATATTACTAG_LTGcore_GT_RTGcore_CT] (site CATATTACTAG) (LTG core: GT, RTG core: CT) | 0.209 |
| CATATTATCTGGGTTCTAACCTGTTGCCTGA [CATATTACTAG_LTGcore_TC_RTGcore_TC] (site CATATTACTAG) (LTG core: TC, RTG core: TC) | 0.0468 |
| CATATTATGTGGGTTCTAACCTGTTGCCTCA [CATATTACTAG_LTGcore_TG_RTGcore_TG] (site CATATTACTAG) (LTG core: TG, RTG core: TG) | 0.0228 |
